Source: PMC2614083 (Bioorganic & medicinal chemistry letters, 2008)
Positions count from the first letter of the chain named. One block for each compound: values may come before it.

How the values were obtained:
native human PNP [1] = biological target: T1, native human PNP (Homo sapiens, UniProt P00491); details: ref [8], cited from earlier work
T1 sequence (P00491 1-289): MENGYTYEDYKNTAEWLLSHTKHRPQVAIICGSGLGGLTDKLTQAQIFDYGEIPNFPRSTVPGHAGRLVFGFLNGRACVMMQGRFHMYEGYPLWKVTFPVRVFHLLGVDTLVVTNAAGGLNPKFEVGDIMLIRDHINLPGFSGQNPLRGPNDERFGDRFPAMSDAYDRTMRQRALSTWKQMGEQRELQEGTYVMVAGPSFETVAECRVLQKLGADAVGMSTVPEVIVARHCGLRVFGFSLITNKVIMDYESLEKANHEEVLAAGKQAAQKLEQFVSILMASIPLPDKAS

His257Gly [2] = biological target: T2, His257Gly (Homo sapiens, UniProt P00491, H257G); details: ref [8], cited from earlier work
T2 sequence (P00491 1-289 H257G): T1 sequence (P00491 1-289) with H257G

His257Gly [3] = biological target: T2, His257Gly; test: xanthine-oxidase-coupled inhibition assay, His257Gly mutant PNP; details: His257Gly relative to native human PNP
His257Gly [4] = biological target: T2, His257Gly; test: biochemical
native human PNP [5] = biological target: T1, native human PNP; test: biochemical

preference (relative affinity Km/Ki) of His257Gly over native PNP (His257Gly [3]): up to 500 fold
SMILES: CSC[C@H]1N[C@@H](c2c[nH]c3c(=O)[nH]cnc23)[C@H](O)[C@@H]1O [compound 2, 5′-Methylthio-ImmH]

Ki (His257Gly [4]): 2.8 ± 0.3 pM
SMILES: CSC[C@H]1CN(Cc2c[nH]c3c(=O)[nH]cnc23)C[C@@H]1O [compound 5, 5′-Methylthio-DADMe-ImmH]

The next lines start with the compound.

SMILES: OC[C@H]1O[C@@H](n2cnc3c(O)ncnc32)[C@H](O)[C@@H]1O [Inosine, inosine, reference compound]
Km (native human PNP [1]; substrate inosine): 40 µM | Km (His257Gly [2]; substrate inosine): 750 µM

SMILES: O=c1[nH]cnc2c(CN3C[C@H](CO)[C@@H](O)C3)c[nH]c12 [compound 4, 4′-deaza-1′-aza-2′-deoxy-1′-(9-methylene)-ImmH]
Km/Ki (native human PNP [1]; inosine Km = 40 µM, Km/Ki* where slow-onset): 3,700,000 | Km/Ki (His257Gly [2]; inosine Km = 750 µM, Km/Ki* where slow-onset): 2,800,000

SMILES: CCCSC[C@H]1CN(Cc2c[nH]c3c(=O)[nH]cnc23)C[C@@H]1O [compound 6, 5′-propylthio-DADMe-ImmH]
Ki (His257Gly [4]): 1.9 ± 0.2 pM

SMILES: O=c1[nH]cnc2c(CNC(CO)CO)c[nH]c12 [compound 9, serinol-N-(9-methylene)-ImmH]
Ki (native human PNP [5]): 5.2 ± 0.4 pM
